In paper PMC9418665, “Fatty acid amide hydrolase inhibition and N‐arachidonoylethanolamine modulation by isoflavonoids: A novel target for upcoming antidepressants” (Pharmacology Research & Perspectives, 2022):
Where two headings read alike, the source gives them in different places.

Molecular target: T1, fatty acid amide hydrolase (FAAH) (Homo sapiens, UniProt O00519)
T1 sequence (O00519 1-579): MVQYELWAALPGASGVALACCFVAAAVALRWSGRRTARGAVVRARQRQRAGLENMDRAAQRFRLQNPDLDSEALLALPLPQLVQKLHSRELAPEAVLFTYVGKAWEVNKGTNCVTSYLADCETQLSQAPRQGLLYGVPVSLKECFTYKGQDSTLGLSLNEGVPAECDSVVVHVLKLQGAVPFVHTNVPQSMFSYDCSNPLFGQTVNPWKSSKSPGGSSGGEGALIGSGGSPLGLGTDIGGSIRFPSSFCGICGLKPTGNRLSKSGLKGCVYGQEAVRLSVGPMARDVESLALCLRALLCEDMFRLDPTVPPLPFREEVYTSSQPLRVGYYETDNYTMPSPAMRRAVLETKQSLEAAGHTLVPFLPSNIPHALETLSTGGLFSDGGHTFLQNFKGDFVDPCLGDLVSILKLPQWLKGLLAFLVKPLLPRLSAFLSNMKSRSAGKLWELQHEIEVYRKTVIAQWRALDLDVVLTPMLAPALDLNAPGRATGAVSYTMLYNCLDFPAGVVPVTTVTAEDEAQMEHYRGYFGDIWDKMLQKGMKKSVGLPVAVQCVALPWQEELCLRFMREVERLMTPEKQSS
Assay: biochemical

With `O=c1cc(-c2ccccc2)oc2cc(O)ccc12` [7-hydroxyflavone] the IC50 was 2.04 ± 0.19 µM.
`CCCCC/C=C\C/C=C\C/C=C\C/C=C\CCCC(=O)NCCc1c[nH]c2ccc(O)cc12` [arch-5HT] was tested, and the IC50 was 1.04 ± 0.13 µM.
`COc1ccc(-c2coc3cc(O)cc(O)c3c2=O)cc1` [biochanin-A] gave an IC50 (read-out: IC50) of 2.1 ± 0.24 µM.
`O=c1c(-c2ccc(O)cc2)coc2cc(O)cc(O)c12` [genistein] showed an IC50 (read-out: IC50) of 1.3 ± 0.13 µM.
